This is an account of results in ChEMBL document CHEMBL1131852, “Synthesis and antitumor activity of water-soluble duocarmycin B1 prodrugs” (Bioorg Med Chem Lett, 1999).

Usually pIC50 stands for the negative decadic logarithm of the IC50, by convention in mol/L. A low value points to a large IC50.

A short description of test [1]: In vivo antitumor activity against Sarcoma 180 at dose 1.0 mg/kg. The class given is functional, Mus musculus.
The subject of test [2] is HeLa. Put plainly: In vitro anticellular activity against HeLa S3 cells 1 hr after administration of the compound. The format is functional, cell-based. The conditions noted are these: Homo sapiens.
For test [3], the system named is HeLa. Description: In vitro anticellular activity against HeLa S3 cells 72 hr after administration of the compound. The class given is functional, cell-based. The conditions noted are these: Homo sapiens.
The nature of test [4]: In vivo antitumor activity against Sarcoma 180 at dose 0.5 mg/kg. The format is functional, Mus musculus.
A short description of test [5]: In vivo antitumor activity against Sarcoma 180 at dose 16.0 mg/kg. The format is functional, Mus musculus.
Test [6] in a line: In vivo antitumor activity against Sarcoma 180 at dose 8.0 mg/kg. The format is functional, Mus musculus.
Test [7] concerns Colon 26. Description: In vivo antitumor activity against Colon 26 […] at dose 2.0 mg/kg. The format is functional.
Test [8] deals with Colon 26. Put plainly: In vivo antitumor activity against Colon 26 […] at dose 1.0 mg/kg. The class given is functional.
Test [9] is described as follows: In vivo antitumor activity against Sarcoma 180 at dose 2.0 mg/kg. The format is functional, Mus musculus.
The subject of test [10] is Colon 26. Description: In vivo antitumor activity against Colon 26 […] at dose 0.25 mg/kg. The class given is functional.
Test [11] deals with Colon 26. Put plainly: In vivo antitumor activity against Colon 26 […] at dose 0.5 mg/kg. The class given is functional.

The structures appear in SMILES notation. pIC50: −log10 of the molar value.

As to `COC(=O)[C@]1(C)Nc2c(OP(=O)(O)O)cc3c(c2C1=O)C[C@H](Br)CN3C(=O)c1cc2cc(OC)c(OC)c(OC)c2[nH]1`, the T/C in [1] stood at 0.29; in [4] it was 0.57. In addition, the pIC50 in the test with HeLa [2] was 7.40; in the test with HeLa [3] it was 8.49.
In the case of `COC(=O)[C@]1(C)Nc2c(O)cc3c(c2C1=O)C[C@H](Br)CN3C(=O)c1cc2cc(OC)c(OC)c(OC)c2[nH]1`, the figures for the pIC50 with HeLa [2] and in the test with HeLa [3] were 9.89 and 10.42, respectively. For the same molecule, the T/C in test [4] is listed as 0.22.
As for `COC(=O)[C@]1(C)Nc2c(O[C@@H]3OC(CO)[C@@H](O)C(O)[C@@H]3O)cc3c(c2C1=O)C[C@H](Br)CN3C(=O)c1cc2cc(OC)c(OC)c(OC)c2[nH]1` (stereo partly drawn), the results for the T/C in test [5] and in test [6] were 0.38 and 0.55, respectively. In addition, the pIC50 was 5.70 in the test with HeLa [2] and 6.08 in the test on HeLa [3].
As to `COC(=O)[C@]1(C)Nc2c(OC(=O)N3CCN(C)CC3)cc3c(c2C1=O)C[C@H](Br)CN3C(=O)c1cc2cc(OC)c(OC)c(OC)c2[nH]1.Cl`, the T/C in the test on Colon 26 [7] turned out to be 0.045; with Colon 26 [8] it was 0.23; in test [9], 0.083; in test [1] it was 0.19. The pIC50 in the test on HeLa [2] is 5.70; in the test on HeLa [3], 7.15.
Consider `COC(=O)[C@]1(C)Nc2c(OC(=O)N3CCN(C)CC3)cc3c(c2C1=O)[C@H](CBr)CN3C(=O)c1cc2cc(OC)c(OC)c(OC)c2[nH]1.Cl`, for which the T/C came out at 0.37 with Colon 26 [10], 0.13 in [1], 0.13 with Colon 26 [11] and 0.26 in test [4]. In addition, the pIC50 was 6.77 in the test with HeLa [2] and 7.82 in the test on HeLa [3].
